In brackets after ≈: the same amount, converted by molar mass. Several values for one entry are separate records, joined by “and”; a condition that tells them apart may be missing. Identical values can stand only once. Entries after “also recorded” stand apart in the source; their conditions may differ. Counter-ions that a name gives are not always drawn. Like-named read-outs stand apart in the source and are kept apart here. One block for each molecule: values may come before it.
Assays:
[1] = peak serum levels in dogs; type: in vivo; settings: dog, 10 mg/kg I.M.
Protocol: (§1) In determining peak serum levels, the animal tested (e.g. dog or rat) is given a single dose of 10 or 25 mg/kg of everninomicin D or derivative thereof of this invention, blood samples are taken periodically, and the serum thereof is assayed for anti-bacterial activity by an agar-diffusion-assay as described by Weinstein et al., Antimicrobial Agents and Chemotherapy, p 24 (1964).

[2] = test system: Staphylococcus and Streptococcus; experiment: in vitro susceptibility of gram-positive microorganisms, standard tube dilution (MIC); type: cell-based; settings: for MIC: Staphylococcus and Streptococcus, 24 hours at 37° C, Penassay broth; for antibacterial activity compared with everninomicin D: gram-positive bacteria
Protocol: The comparative in vitro activities of nitrosoeverninomicin D and the sodium salt thereof, hydroxylaminoeverninomicin D and the sodium salt and N-methylglucamine salt thereof, hydroxylaminoeverninomicin D benzyl nitrone N-methylglucamine salt, hydroxylaminoeverninomicin B and hydroxylaminoeverninomicin C are set forth in Table 1 below. The susceptibility of the test gram-positive microorganisms to the antibacterials was determined by standard tube dilution methods. In each instance 10^^-5 dilutions of 24-hour broth cultures were employed as inoculum with the endpoints being taken after incubation for 24 hours at 37° C in a Difco […] broth medium (Difco Labs., Detroit, Michigan). In the tables, the activity (or assay value) of each respective antibacterial agent is expressed in units per milliliter or micrograms per milliliter.

[3] = pKa of purified everninomicin D; type: physicochemical
[4] = peak serum levels in rats; type: in vivo; settings: rat, 25 mg/kg S.C.
Protocol: as §1

[5] = acute toxicity (LD50) in mice; settings: mouse, in vivo; for LD50 in mice I.P. (mg/kg): ip; for LD50 in mice I.V. (mg/kg): iv; for LD50 in mice S.C. (mg/kg): sc
Protocol: The acute toxicity (LD50) of the antibacterial substances in either aqueous suspensions or aqueous solutions is measured in milligrams per kilogram in standard manner using male CF-1 mice weighing 20 grams.

[6] = test system: N.gonorrhea and N.meningitidis; experiment: in vitro susceptibility of gram-negative microorganisms, plate dilution in Thayer-Martin medium (MIC); type: cell-based, Neisseria gonorrhea and Neisseria meningitidis; settings: for MIC: N.gonorrhea and N.meningitidis, Thayer-Martin medium
Protocol: The susceptibility of the gram-negative microorganisms to the antibacterials was determined by plate dilution methods in Thayer-Martin medium by the known Thayer-Martin procedure.

[7] = absorption, serum levels and excretion after injection compared with everninomicin D; type: in vivo; settings: by injection
Protocol: as §1

[8] = test system: S. aureus (A.T.C.C. 6538p); experiment: microbiological assay (bioassay), cup-type agar diffusion; type: cell-based
Protocol: The microbiological assay (also called the bioassay) is effected microbiologically by a standard cup-type agar diffusion assay technique using S. aureus (A.T.C.C. 6538p) as test organism. A reference curve is prepared by plotting the dosage-response of the antibacterial agent in ethanol diluted by phosphate buffer at pH7 upon a medium of the following composition which has been inoculated with the test organism (i.e. S. aureus): A suspension of the assay organism (S. aureus A.T.C.C. 6538p) is standardized to produce 20% transmission at 660 mμ in a colorimeter. The potency of the sample is determined from the reference curve and expressed in terms of units per milligram (a unit being that amount of test substance required to produce a 15 mm zone of inhibition with a steel cylinder of 6.5 mm outside diameter).

SMILES: COCC1OC(OC2OCC3OC4(OCC(O)(C(C)OC)C5OCOC54)OC3C2OC)C(OC)C(O)C1OC1OC(C)C(OC)C(OC2CC3(C)OC4(CC(O)C(OC5CC(OC6CC(C)([N+](=O)[O-])C(OC)C(C)O6)C(OC(=O)c6c(C)c(Cl)c(O)c(Cl)c6OC)C(C)O5)C(C)O4)OC3C(C)O2)C1O (stereo not drawn) [Everninomicin D, everninomicin D, reference compound]
Peak serum levels in dogs [1]: 2 to 3 µg/mL
MIC ([2]; 24 h, read-out: MIC): 0.03 to 0.3 mg/L (≈ 0.0195 to 0.195 µM)
pKa [3]: 7.2
Peak serum levels in rats [4]: 10 to 12 µg/mL
LD50 in mice I.P. (mg/kg) [5]: > 3800
LD50 in mice I.V. (mg/kg) [5]: 125
LD50 in mice Oral (mg/kg) [5]: > 3800
LD50 in mice S.C. (mg/kg) [5]: > 3800

MIC ([2]; 24 h, read-out: MIC): 0.1 to 1 mg/L (≈ 0.065 to 0.65 µM)
SMILES: COCC1OC(OC2OCC3OC4(OCC(O)(C(C)OC)C5OCOC54)OC3C2OC)C(OC)C(O)C1OC1OC(C)C(OC)C(OC2OC(C)C3OC4(CC(O)C(OC5CC(OC6CC(C)(NO)C(OC)C(C)O6)C(OC(=O)c6c(C)c(Cl)c(O)c(Cl)c6OC)C(C)O5)C(C)O4)OC3(C)C2O)C1O (stereo not drawn) [Hydroxylaminoeverninomicin B, hydroxylaminoeverninomicin B]

Cmax ([1]; serum, im): 15 µg/mL
MIC ([2]; 24 h, read-out: MIC): 0.1 to 0.8 mg/L (≈ 0.0682 to 0.546 µM)
SMILES: COCC1OC(OC2OCC3OC4(OCC(O)C5OCOC54)OC3C2OC)C(OC)C(O)C1OC1OC(C)C(OC)C(OC2CC3(C)OC4(CC(O)C(OC5CC(OC6CC(C)(NO)C(OC)C(C)O6)C(OC(=O)c6c(C)c(Cl)c(O)c(Cl)c6OC)C(C)O5)C(C)O4)OC3C(C)O2)C1O (stereo not drawn) [Hydroxylaminoeverninomicin C, hydroxylaminoeverninomicin C]

SMILES: COCC1OC(OC2OCC3OC4(OCC(O)(C(C)OC)C5OCOC54)OC3C2OC)C(OC)C(O)C1OC1OC(C)C(OC)C(OC2CC3(C)OC4(CC(O)C(OC5CC(OC6CC(C)(NO)C(OC)C(C)O6)C(OC(=O)c6c(C)c(Cl)c(O)c(Cl)c6OC)C(C)O5)C(C)O4)OC3C(C)O2)C1O (stereo not drawn) [Hydroxylaminoeverninomicin D N-methylglucamine salt]
Peak serum levels in dogs [1]: 20 to 30 µg/mL
MIC [2]: 0.08 to 0.8 mg/L
Peak serum levels in rats [4]: 30 to 40 µg/mL
LD50 in mice I.P. (mg/kg) [5]: 500
LD50 in mice I.V. (mg/kg) [5]: 30
LD50 in mice Oral (mg/kg) [5]: > 2000
LD50 in mice S.C. (mg/kg) [5]: 500
MIC [6]: 0.2 to 1.0 mg/L

SMILES: COCC1OC(OC2OCC3OC4(OCC(O)(C(C)OC)C5OCOC54)OC3C2OC)C(OC)C(O)C1OC1OC(C)C(OC)C(OC2CC3(C)OC4(CC(O)C(OC5CC(OC6CC(C)(NO)C(OC)C(C)O6)C(OC(=O)c6c(C)c(Cl)c(O)c(Cl)c6OC)C(C)O5)C(C)O4)OC3C(C)O2)C1O (stereo not drawn) [Hydroxylaminoeverninomicin D sodium salt, hydroxylaminoeverninomicin D sodium salt]
Peak serum levels in dogs [1]: 20 to 30 µg/mL
MIC ([2]; sodium salt): 0.08 to 0.8 mg/L
antibacterial activity compared with everninomicin D ([2]; sodium salt): antibacterial activity comparable to that of the everninomicin D precursor; also recorded: comparable antibacterial activity against gram-positive bacteria
Peak serum levels in rats [4]: 30 to 40 µg/mL
absorption compared with everninomicin D [7]: more rapidly absorbed
excretion compared with everninomicin D [7]: more rapidly excreted than everninomicin D
serum levels compared with everninomicin D [7]: higher serum levels
LD50 in mice I.P. (mg/kg) [5]: 500
LD50 in mice I.V. (mg/kg) [5]: 30
LD50 in mice Oral (mg/kg) [5]: > 2000
LD50 in mice S.C. (mg/kg) [5]: 500
MIC ([6]; Neisseria meningitidis, read-out: MIC): 0.2 to 1 mg/L

SMILES: COCC1OC(OC2OCC3OC4(OCC(O)(C(C)OC)C5OCOC54)OC3C2OC)C(OC)C(O)C1OC1OC(C)C(OC)C(OC2CC3(C)OC4(CC(O)C(OC5CC(OC6CC(C)(NO)C(OC)C(C)O6)C(OC(=O)c6c(C)c(Cl)c(O)c(Cl)c6OC)C(C)O5)C(C)O4)OC3C(C)O2)C1O (stereo not drawn) [Hydroxylaminoeverninomicin D, hydroxylaminoeverninomicin D]
MIC [2]: 0.3 to 0.8 mg/L
antibacterial activity compared with everninomicin D [2]: antibacterial activity comparable to that of everninomicin D; also recorded: comparable antibacterial activity against gram-positive bacteria
absorption compared with everninomicin D [7]: more rapidly absorbed
activity against certain gram-negative bacteria ([6]; certain gram-negative bacteria, in words): certain gram-negative bacteria are also susceptible

MIC ([2]; sodium salt): 0.08 to 3 mg/L
SMILES: COCC1OC(OC2OCC3OC4(OCC(O)(C(C)OC)C5OCOC54)OC3C2OC)C(OC)C(O)C1OC1OC(C)C(OC)C(OC2CC3(C)OC4(CC(O)C(OC5CC(OC6CC(C)(N=O)C(OC)C(C)O6)C(OC(=O)c6c(C)c(Cl)c(O)c(Cl)c6OC)C(C)O5)C(C)O4)OC3C(C)O2)C1O (stereo not drawn) [Nitrosoeverninomicin D sodium salt, nitrosoeverninomicin D sodium salt]

Peak serum levels in dogs [1]: 6 µg/mL
MIC ([2]; 24 h, read-out: MIC): 0.08 to 0.8 mg/L (≈ 0.0526 to 0.526 µM)
Peak serum levels in rats [4]: 10 to 11 µg/mL
SMILES: COCC1OC(OC2OCC3OC4(OCC(O)(C(C)OC)C5OCOC54)OC3C2OC)C(OC)C(O)C1OC1OC(C)C(OC)C(OC2CC3(C)OC4(CC(O)C(OC5CC(OC6CC(C)(N=O)C(OC)C(C)O6)C(OC(=O)c6c(C)c(Cl)c(O)c(Cl)c6OC)C(C)O5)C(C)O4)OC3C(C)O2)C1O (stereo not drawn) [Nitrosoeverninomicin D, nitrosoeverninomicin D]
Bioassay [8]: 1460 µg/mL

Peak serum levels in dogs [1]: 1 to 2 µg/mL
Peak serum levels in rats ([4]; 25 mg/kg): 10 to 12 µg/mL and 9 µg/mL
SMILES: COCC1OC(OC2OCC3OC4(OCC(O)(C(C)OC)C5OCOC54)OC3C2OC)C(OC)C(O)C1OC1OC(C)C(OC)C(OC2CC3(C)OC4(CC(O)C(OC5CC(OC6CC(C)([N+]([O-])=Cc7ccccc7)C(OC)C(C)O6)C(OC(=O)c6c(C)c(Cl)c(O)c(Cl)c6OC)C(C)O5)C(C)O4)OC3C(C)O2)C1O (stereo not drawn) [hydroxylaminoeverninomicin D benzyl nitrone N-methylglucamine salt]

SMILES: COCC1OC(OC2OCC3OC4(OCC(O)(C(C)OC)C5OCOC54)OC3C2OC)C(OC)C(O)C1OC1OC(C)C(OC)C(OC2CC3(C)OC4(CC(O)C(OC5CC(OC6CC(C)([N+]([O-])=Cc7ccccc7)C(OC)C(C)O6)C(OC(=O)c6c(C)c(Cl)c(O)c(Cl)c6OC)C(C)O5)C(C)O4)OC3C(C)O2)C1O (stereo not drawn) [hydroxylaminoeverninomicin D benzyl nitrone]
Bioassay [8]: 1309.0 µg/mL

SMILES: COCC1OC(OC2OCC3OC4(OCC(O)(C(C)OC)C5OCOC54)OC3C2OC)C(OC)C(O)C1OC1OC(C)C(OC)C(OC2CC3(C)OC4(CC(O)C(OC5CC(OC6CC(C)([N+]([O-])=Cc7ccco7)C(OC)C(C)O6)C(OC(=O)c6c(C)c(Cl)c(O)c(Cl)c6OC)C(C)O5)C(C)O4)OC3C(C)O2)C1O (stereo not drawn) [hydroxylaminoeverninomicin D furfuryl nitrone]
Bioassay [8]: 1063.4 µg/mL

SMILES: CCCCCCC=[N+]([O-])C1(C)CC(OC2CC(OC3C(O)CC4(OC3C)OC3C(C)OC(OC5C(O)C(OC6C(COC)OC(OC7OCC8OC9(OCC(O)(C(C)OC)C%10OCOC%109)OC8C7OC)C(OC)C6O)OC(C)C5OC)CC3(C)O4)OC(C)C2OC(=O)c2c(C)c(Cl)c(O)c(Cl)c2OC)OC(C)C1OC (stereo not drawn) [hydroxylaminoeverninomicin D heptyl nitrone]
Bioassay [8]: 892 µg/mL
